The source of these data is patent publication US9249125B2, “Pyrazole derivatives as p38 MAP inhibitors” (RESPIVERT LIMITED, priority 2012, dated 2016).

One series has as its system d-U937 cells. In words: Cell viability: MTT assay. It is filed as cell-based, human. Conditions: 1 μg/mL. The method in brief: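 Differentiated U937 cells were exposed to compound at 1 or 10 μg/mL either 4 h in 5% FCS RPMI1640 or 24 h in 10% FCS RPMI1640, then given MTT for 1 h, DMSO-solubilised and read at 550 nm. Percent viability loss versus 0.5% DMSO vehicle; apparent gains appear negative.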
In general terms: Tetrazolium assays rely on reduction of a dye to a coloured formazan, in cell work by metabolically active cells.

Another series concerns the target GSK3α (Homo sapiens (Human), UniProt P49840). Nature of the series: Enzyme binding assay (Kinomescan) GSK3α. Conditions: read-out: % Inhibition for kinase binding at 500 nM GSK3α. As to the method: (§1) The kinase enzyme binding activities of compounds disclosed herein were determined using a proprietary assay which measures active site-directed competition binding to an immobilized ligand (Fabian, M. A. et al., Nature Biotechnol., 2005, 23:329-336). These assays were conducted by DiscoverX (formerly Ambit; San Diego, Calif.). The percentage inhibition produced by incubation with a test compound is calculated relative to the non-inhibited control.

Series [1] relates to Poly I:C-induced ICAM-1 expression in BEAS2B cells. Nature of the series: Poly I:C-induced ICAM-1 expression in BEAS2B cells. It is filed as cell-based. The following applies: Homo sapiens, BEAS-2B, read-out: Poly IC induced ICAM1 in BEAS2B IC50. The method in brief: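 BEAS2B human bronchial epithelial cells pre-incubated with compound for 2 hr, then transfected with 1 μg/mL poly I:C plus Oligofectamine. At 18 hr, surface ICAM-1 measured by cell-based ELISA (HRP, OD450–655). Signal corrected for cell number by crystal violet OD595.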

The next series addresses Syk (Homo sapiens (Human), UniProt P43405). In words: Enzyme binding assay (Kinomescan) Syk. Conditions: read-out: % Inhibition for kinase binding at 500 nM Syk. How it is done:
as §1

For a further series, the target named is HCK (Homo sapiens (Human), UniProt P08631). Nature of the series: Enzyme binding assay (Kinomescan) HCK. Conditions: read-out: % Inhibition for kinase binding at 500 nM HCK. As to the method: as §1
HCK, sequence (P08631 22-526): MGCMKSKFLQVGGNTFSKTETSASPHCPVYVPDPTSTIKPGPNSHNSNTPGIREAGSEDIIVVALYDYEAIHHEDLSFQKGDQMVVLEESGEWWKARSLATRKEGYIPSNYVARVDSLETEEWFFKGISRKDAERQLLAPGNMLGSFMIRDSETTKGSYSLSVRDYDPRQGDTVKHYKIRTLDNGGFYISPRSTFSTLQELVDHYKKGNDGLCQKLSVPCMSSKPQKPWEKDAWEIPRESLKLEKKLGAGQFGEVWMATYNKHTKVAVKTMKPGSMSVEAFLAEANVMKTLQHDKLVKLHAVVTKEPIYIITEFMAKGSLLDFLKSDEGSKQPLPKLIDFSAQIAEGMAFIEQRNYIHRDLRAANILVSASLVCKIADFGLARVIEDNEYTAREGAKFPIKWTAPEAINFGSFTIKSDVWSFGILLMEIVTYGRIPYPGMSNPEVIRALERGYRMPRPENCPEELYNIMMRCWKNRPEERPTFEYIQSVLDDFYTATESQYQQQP
The target in another series is B-Raf (Homo sapiens (Human), UniProt P15056). In words: Enzyme binding assay (Kinomescan) B-Raf. Conditions: read-out: % Inhibition for kinase binding at 500 nM B-Raf. How it is done: These assays were conducted by DiscoverX (formerly Ambit; San Diego, Calif.). The percentage inhibition produced by incubation with a test compound is calculated relative to the non-inhibited control.
B-Raf, sequence (P15056 whole entry): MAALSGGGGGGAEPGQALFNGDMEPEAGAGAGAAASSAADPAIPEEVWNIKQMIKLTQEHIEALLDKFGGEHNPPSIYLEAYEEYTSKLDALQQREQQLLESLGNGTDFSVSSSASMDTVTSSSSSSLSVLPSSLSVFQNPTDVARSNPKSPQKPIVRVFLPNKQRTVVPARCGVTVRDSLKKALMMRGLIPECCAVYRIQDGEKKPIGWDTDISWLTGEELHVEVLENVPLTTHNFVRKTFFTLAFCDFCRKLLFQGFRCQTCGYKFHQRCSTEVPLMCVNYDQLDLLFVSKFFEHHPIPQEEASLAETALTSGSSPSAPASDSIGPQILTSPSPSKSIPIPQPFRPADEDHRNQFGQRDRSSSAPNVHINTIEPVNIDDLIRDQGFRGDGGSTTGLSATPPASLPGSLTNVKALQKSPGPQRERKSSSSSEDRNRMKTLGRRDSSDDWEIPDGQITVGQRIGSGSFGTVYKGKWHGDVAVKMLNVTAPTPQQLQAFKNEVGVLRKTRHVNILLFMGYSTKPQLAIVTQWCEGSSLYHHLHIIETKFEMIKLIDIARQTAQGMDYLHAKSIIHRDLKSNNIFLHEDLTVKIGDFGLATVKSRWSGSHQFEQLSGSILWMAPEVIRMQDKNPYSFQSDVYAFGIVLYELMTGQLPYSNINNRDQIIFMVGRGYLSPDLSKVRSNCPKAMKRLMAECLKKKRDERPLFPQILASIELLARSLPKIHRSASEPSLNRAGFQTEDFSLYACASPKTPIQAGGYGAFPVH

Series [2] concerns LPS-induced TNFα release in d-U937 cells. In words: LPS-induced TNFα release in d-U937 cells. It is filed as cell-based. The following applies: Homo sapiens, dU937, relative to 10 μg/mL BIRB796, read-out: LPS Induced Release of Cytokine in d-937 Cells TNFα REC50. The procedure, abridged: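 Read-out: TNFα and IL-8 released into supernatant, sandwich ELISA, expressed as inhibition versus vehicle at each dose and fitted to give REC50. Cells were PMA-differentiated U937 (100 ng/mL, 48–72 hr), compound-exposed 2 hr before a 4 hr LPS stimulus (0.1 μg/mL).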

The next series has as its target p38 MAPKα (Homo sapiens (Human), UniProt Q16539). In words: Enzyme binding assay (Kinomescan) p38 MAPKα. The following applies: read-out: % Inhibition for kinase binding at 500 nM p38 MAPKα. How it is done: as §1
For series [3], the system named is LPS-induced airways neutrophilia in mice. Nature of the series: LPS-induced neutrophil accumulation in mice. It is filed as in vivo. The following applies: Test Substance at 0.2 mg/mL, intra tracheal, dosed 8 hr pre-LPS challenge. As to the method:
Non-fasted Balb/c mice are dosed by the intra tracheal route with either vehicle, or the test substance at the indicated times (within the range 2-8 hr) before stimulation of the inflammatory response by application of an LPS challenge. At T=0, mice are placed into an exposure chamber and exposed to LPS (7.0 mL, 0.5 mg/mL solution in PBS) for 30 min). After a further 8 hr the animals are anesthetized, their tracheas cannulated and BALF extracted by infusing and then withdrawing from their lungs 1.0 mL of PBS via the tracheal catheter. Total and differential white cell counts in the BALF samples are measured using a Neubaur haemocytometer. Cytospin smears of the BALF samples are prepared by centrifugation at 200 rpm for 5 min at RT and stained using a DiffQuik stain system (Dade Behring). Cells are counted using oil immersion microscopy. Data for neutrophil numbers in BAL are shown as mean±S.E.M. (standard error of the mean). The percentage inhibition of neutrophil accumulation is calculated for each treatment relative to vehicle treatment.

p38 MAPKα, sequence (Q16539 whole entry): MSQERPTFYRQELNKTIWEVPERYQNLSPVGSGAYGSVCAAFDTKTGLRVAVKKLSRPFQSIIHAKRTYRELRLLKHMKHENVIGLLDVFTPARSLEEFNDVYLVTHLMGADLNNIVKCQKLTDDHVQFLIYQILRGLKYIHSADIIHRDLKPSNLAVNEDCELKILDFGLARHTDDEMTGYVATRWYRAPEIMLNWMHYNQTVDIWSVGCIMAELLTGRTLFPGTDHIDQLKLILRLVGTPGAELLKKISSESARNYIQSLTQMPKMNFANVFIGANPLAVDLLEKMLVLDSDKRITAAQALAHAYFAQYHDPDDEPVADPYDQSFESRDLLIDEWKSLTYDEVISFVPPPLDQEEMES
GSK3α, sequence (P49840 whole entry): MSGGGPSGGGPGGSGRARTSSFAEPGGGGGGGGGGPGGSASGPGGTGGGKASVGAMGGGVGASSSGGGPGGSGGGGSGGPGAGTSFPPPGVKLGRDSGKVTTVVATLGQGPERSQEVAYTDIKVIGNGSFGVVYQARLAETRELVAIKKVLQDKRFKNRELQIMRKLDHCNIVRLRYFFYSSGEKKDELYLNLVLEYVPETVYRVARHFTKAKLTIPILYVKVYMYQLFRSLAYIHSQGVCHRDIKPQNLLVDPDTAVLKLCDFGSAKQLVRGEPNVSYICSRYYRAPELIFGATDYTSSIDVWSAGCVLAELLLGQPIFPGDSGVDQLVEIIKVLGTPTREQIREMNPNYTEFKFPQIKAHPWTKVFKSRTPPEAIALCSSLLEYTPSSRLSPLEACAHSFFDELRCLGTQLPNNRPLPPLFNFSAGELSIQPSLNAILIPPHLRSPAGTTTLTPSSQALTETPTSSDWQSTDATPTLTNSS

By inhibition is commonly meant the drop in the measured response relative to a control, in per cent. One may read the IC50 as the concentration that inhibits the measured activity by half. For `COCC(=O)Nc1cc(Oc2ccc(NC(=O)Nc3cc(C(C)(C)C)nn3-c3ccc(C)cc3)c3ccccc23)ccn1` [Reference Compound, N-(4-(4-(3-(3-tert-butyl-1-p-tolyl-1H-pyrazol-5-yl)ureido)naphthalen-1-yloxy)pyridin-2-yl)-2-methoxyacetamide, reference compound], the “MTT Assay Cell viability at time point in d-U937 cells 4 h” value in the series with d-U937 cells (4 h) was “−ve (−ve and +ve indicate that the value is below and above respectively, the no significant effect threshold, defined as 30% inhibition at 1 μg/mL at the time point indicated.)”. In the series with d-U937 cells (24 h), the “MTT Assay Cell viability at time point in d-U937 cells 24 h” value is “+ve (−ve and +ve indicate that the value is below and above respectively, the no significant effect threshold, defined as 30% inhibition at 1 μg/mL at the time point indicated.)”. In addition, the inhibition at 0.5 µM amounted to 84% on GSK3α; 95% on Syk; 100% at HCK; 70% on B-Raf; 100% at p38 MAPKα. In series [1], the IC50 turned out to be 2.1 nM. In addition, in series [2], the EC50 amounted to 0.13 nM. In series [3], the “% Inhibition of neutrophil accumulation in BAL” value is given as 60%. Besides, the “Neutrophil numbers in BAL (+/−SEM)” value in [3] was 5.6 ± 0.86 ×10^5/mL.
